Assay results: patent US10294202B2, “Pyrrolidinones as herbicides” (FMC Corporation, priority 2013, dated 2019)

Legend:
giant foxtail = test: Test A pre-/postemergence herbicide test; assay type: in vivo, Setaria faberii; conditions: for Plant response rating, Foxtail, Giant: 0 to 100 scale
How it was run: (§1)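 Seeds in loam–sand blend received preemergence directed soil spray; separately, plants 2–10 cm at one- to two-leaf stage received postemergence spray, both with test chemicals in non-phytotoxic solvent with surfactant. After ~10 days in greenhouse, injury rated visually against untreated controls, 0 (no effect) to 100 (complete control).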

wheat = test: Test A pre-/postemergence herbicide test; assay type: in vivo, Triticum aestivum; conditions: for Plant response rating, Wheat: 0 to 100 scale
How it was run: as §1

crabgrass, large = test: Test A pre-/postemergence herbicide test; assay type: in vivo, Digitaria sanguinalis; conditions: for Plant response rating, Crabgrass, Large: 0 to 100 scale
How it was run: as §1

barnyardgrass [1] = test: Test A pre-/postemergence herbicide test; assay type: in vivo, Echinochloa crus-galli; conditions: for Plant response rating, Barnyardgrass: 0 to 100 scale
How it was run: as §1

pigweed = test: Test A pre-/postemergence herbicide test; assay type: in vivo, Amaranthus retroflexus; conditions: for Plant response rating, Pigweed: 0 to 100 scale
How it was run: as §1

rice = test: Test B flooded paddy test; assay type: in vivo, Oryza sativa; conditions: Flood, scale of 0 to 100 where 0 is no effect and 100 is complete control
How it was run: (§2)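 Scoring: visual, compared with untreated controls, 0 = no effect through 100 = complete control, taken 13 to 15 days after treatment in the greenhouse. Compounds had been added to paddy water over soil flooded 3 cm deep at the plants' 2-leaf stage.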

sedge, umbrella = test: Test B flooded paddy test; assay type: in vivo, Cyperus difformis; conditions: Flood, scale of 0 to 100 where 0 is no effect and 100 is complete control
How it was run: as §2

ducksalad = test: Test B flooded paddy test; assay type: in vivo, Heteranthera limosa; conditions: Flood, scale of 0 to 100 where 0 is no effect and 100 is complete control
How it was run: as §2

barnyardgrass [2] = test: Test B flooded paddy test; assay type: in vivo, Echinochloa crus-galli; conditions: Flood, scale of 0 to 100 where 0 is no effect and 100 is complete control
How it was run: as §2

corn = test: Test A pre-/postemergence herbicide test; assay type: in vivo, Zea mays; conditions: for Plant response rating, Corn: 0 to 100 scale
How it was run: as §1

velvetleaf = test: Test A pre-/postemergence herbicide test; assay type: in vivo, Abutilon theophrasti; conditions: for Plant response rating, Velvetleaf: 0 to 100 scale
How it was run: as §1

morningglory = test: Test A pre-/postemergence herbicide test; assay type: in vivo, Ipomoea spp.; conditions: for Plant response rating, Morningglory: 0 to 100 scale
How it was run: as §1

[3] = 125 g ai/ha, visual rating, 0 no effect, 100 complete control, approximately 10 days, preemergence
[4] = Postemergence, 125 g ai/ha, 0 is no effect, 100 is complete control
[5] = preemergence, 500 g ai/ha, 0 is no effect and 100 is complete control

| Structure (SMILES) | Plant response rating, Foxtail, Giant (giant foxtail; [3]) | Plant response rating, Foxtail, Giant (giant foxtail; [4]) | Foxtail, Giant plant response rating (0 to 100 scale, 0 is no effect, 100 is complete control) (giant foxtail; Postemergence, 500 g ai/ha) | Plant response rating, Foxtail, Giant (giant foxtail; [5]) | Plant response rating, Wheat (wheat; [3]) | Plant response rating, Wheat (wheat; [4]) | Wheat plant response rating (0 to 100 scale, 0 is no effect, 100 is complete control) (wheat; Postemergence, 500 g ai/ha) | Plant response rating, Wheat (wheat; [5]) | Plant response rating, Crabgrass, Large (crabgrass, large; [3]) | Plant response rating, Crabgrass, Large (crabgrass, large; [4]) | Crabgrass, Large plant response rating (0 to 100 scale, 0 is no effect, 100 is complete control) (crabgrass, large; Postemergence, 500 g ai/ha) | Plant response rating, Crabgrass, Large (crabgrass, large; [5]) | Plant response rating, Barnyardgrass (barnyardgrass [1]; [3]) | Plant response rating, Barnyardgrass (barnyardgrass [1]; [4]) | Barnyardgrass plant response rating (0 to 100 scale, 0 is no effect, 100 is complete control) (barnyardgrass [1]; Postemergence, 500 g ai/ha) | Plant response rating, Barnyardgrass (barnyardgrass [1]; [5]) | Plant response rating, Pigweed (pigweed; [3]) | Plant response rating, Pigweed (pigweed; [4]) | Pigweed plant response rating (0 to 100 scale, 0 is no effect, 100 is complete control) (pigweed; Postemergence, 500 g ai/ha) | Plant response rating, Pigweed (pigweed; [5]) | also measured |
| --- | --- | --- | --- | --- | --- | --- | --- | --- | --- | --- | --- | --- | --- | --- | --- | --- | --- | --- | --- | --- | --- |
| COc1cc(C2CNC(=O)C2C(=O)Nc2ccccc2F)ccc1F (racemic) [Compound 194] | 50 | 10 | 50 | 90 | 0 | 0 | 0 | 0 | 90 | 60 | 80 | 100 | 0 | 50 | 80 | 80 | 0 | 0 | 0 | 0 | Plant response rating, Rice (rice; 250 g ai/ha): 0; Plant response rating, Rice (rice; 1000 g ai/ha): 20; Plant response rating, Sedge, Umbrella (sedge, umbrella; 250 g ai/ha): 0; Plant response rating, Sedge, Umbrella (sedge, umbrella; 1000 g ai/ha): 0; Plant response rating, Ducksalad (ducksalad; 250 g ai/ha): 45; Plant response rating, Ducksalad (ducksalad; 1000 g ai/ha): 80; Plant response rating, Barnyardgrass (barnyardgrass [2]; 250 g ai/ha): 0; Plant response rating, Barnyardgrass (barnyardgrass [2]; 1000 g ai/ha): 65; Plant response rating, Corn (corn; [3]): 0; Plant response rating, Corn (corn; [4]): 0; Corn plant response rating (0 to 100 scale, 0 is no effect, 100 is complete control) (corn; Postemergence, 500 g ai/ha): 0; Plant response rating, Corn (corn; [5]): 0; Plant response rating, Velvetleaf (velvetleaf; [3]): 0; Plant response rating, Velvetleaf (velvetleaf; [4]): 0; Velvetleaf plant response rating (0 to 100 scale, 0 is no effect, 100 is complete control) (velvetleaf; Postemergence, 500 g ai/ha): 0; Plant response rating, Velvetleaf (velvetleaf; [5]): 0; Plant response rating, Morningglory (morningglory; [3]): 0; Plant response rating, Morningglory (morningglory; [4]): 0; Morningglory plant response rating (0 to 100 scale, 0 is no effect, 100 is complete control) (morningglory; Postemergence, 500 g ai/ha): 0; Plant response rating, Morningglory (morningglory; [5]): 0 |
| COc1cc(C2CNC(=O)C2C(=O)Nc2cccc(F)c2F)ccc1F (racemic) [Compound 195] | 80 | 30 | 70 | 90 | 0 | 0 | 30 | 0 | 90 | 80 | 80 | 90 | 30 | 80 | 90 | 90 | 0 | 0 | 0 | 0 | Plant response rating, Rice (rice; 250 g ai/ha): 0; Plant response rating, Rice (rice; 1000 g ai/ha): 15; Plant response rating, Sedge, Umbrella (sedge, umbrella; 250 g ai/ha): 0; Plant response rating, Sedge, Umbrella (sedge, umbrella; 1000 g ai/ha): 0; Plant response rating, Ducksalad (ducksalad; 250 g ai/ha): 35; Plant response rating, Ducksalad (ducksalad; 1000 g ai/ha): 100; Plant response rating, Barnyardgrass (barnyardgrass [2]; 250 g ai/ha): 30; Plant response rating, Barnyardgrass (barnyardgrass [2]; 1000 g ai/ha): 70; Plant response rating, Corn (corn; [3]): 0; Plant response rating, Corn (corn; [4]): 0; Corn plant response rating (0 to 100 scale, 0 is no effect, 100 is complete control) (corn; Postemergence, 500 g ai/ha): 0; Plant response rating, Corn (corn; [5]): 0; Plant response rating, Velvetleaf (velvetleaf; [3]): 0; Plant response rating, Velvetleaf (velvetleaf; [4]): 0; Velvetleaf plant response rating (0 to 100 scale, 0 is no effect, 100 is complete control) (velvetleaf; Postemergence, 500 g ai/ha): 0; Plant response rating, Velvetleaf (velvetleaf; [5]): 0; Plant response rating, Morningglory (morningglory; [3]): 0; Plant response rating, Morningglory (morningglory; [4]): 0; Morningglory plant response rating (0 to 100 scale, 0 is no effect, 100 is complete control) (morningglory; Postemergence, 500 g ai/ha): 0; Plant response rating, Morningglory (morningglory; [5]): 0 |
